Test results published in the NIST ThermoML archive (doi:10.1016/j.tca.2011.06.020).

Columns and labels:
[1] = 101 kPa, Liquid; for speed of sound: Sing-around technique in a fixed-path interferometer; for mass density: Vibrating tube method
[2] = xn = mol fraction of the nth substance listed; settings: 101 kPa, Liquid; for speed of sound: Sing-around technique in a fixed-path interferometer; for mass density: Vibrating tube method

Cc1ccccc1N [2-methylaniline]
[1]
Settings	mass density [kg/m3]	speed of sound [m/s]
298.15 K	994.351	1602.6
303.15 K	990.224	1577.8
308.15 K	986.069	1558.4

C1CCOCC1 [tetrahydropyran]
[1]
Settings	mass density [kg/m3]	speed of sound [m/s]
298.15 K	879.136	1269.9
303.15 K	873.992	1246.8
308.15 K	868.831	1224.5

CNC=O [N-methylformamide] + Cc1ccccc1N
[2], x2 = 0
Settings	mass density [kg/m3]	speed of sound [m/s]
298.15 K	999.004	1432.9
303.15 K	994.653	1417.7
308.15 K	990.302	1402.5

C1CCOCC1 [tetrahydropyran] + Cc1ccccc1N
[2], x2 = 0
Settings	mass density [kg/m3]	speed of sound [m/s]
298.15 K	879.136	1269.9
303.15 K	873.992	1246.8
308.15 K	868.831	1224.5

C1CCOCC1 [tetrahydropyran] + CNC=O
[2], x1 = 1
Settings	mass density [kg/m3]	speed of sound [m/s]
298.15 K	879.136	1269.9
303.15 K	873.992	1246.8
308.15 K	868.831	1224.5

CNC=O [N-methylformamide]
[1]
Settings	mass density [kg/m3]	speed of sound [m/s]
298.15 K	999.004	1432.9
303.15 K	994.653	1417.7
308.15 K	990.302	1402.5
